Values quoted from earlier work as cited in US12031126B2, “Methods and compositions for simultaneous editing of both strands of a target double-stranded nucleotide sequence” (The Broad Institute, Inc., priority 2020, dated 2024).

Experiments:
[1] = biological target: FKBP12 (Homo sapiens, UniProt P62942); conditions: cited from earlier work
[2] = biological target: FKBP12 F36V (Homo sapiens, UniProt P62942, F37V); conditions: cited from earlier work
FKBP12 F36V, sequence (P62942 whole entry F37V): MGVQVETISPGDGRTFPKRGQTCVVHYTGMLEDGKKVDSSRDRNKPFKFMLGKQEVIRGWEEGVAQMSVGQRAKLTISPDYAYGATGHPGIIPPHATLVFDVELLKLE

FKBP12, sequence (P62942 whole entry): as the sequence (P62942 whole entry F37V) above, with V37F counted along it

For `CC[C@H](C(=O)N1CCCC[C@H]1C(=O)O[C@H](CCc1ccc(OC)c(OC)c1)c1cccc(OCC(=O)O)c1)c1cc(OC)c(OC)c(OC)c1` [AP1867], the Kd [1] is given as 67 nM and the Kd [2] is given as 0.094 nM.
